Results published in patent US20050101595A1, “N-containing cycloalkyl-substituted amino-thiazole derivatives and pharmaceutical compositions for inhibiting cell proliferation and methods for their use” (PFIZER INC., priority 2003, published 2005).

Tests used:
HCT-116 cell line = test: Inhibition of cell growth, tetrazolium salt (MTT) assay; format: cell-based; conditions: HCT-116, Table 3; for HCT-116 % Inhibition at 0.1 μM: 0.1 μM compound; for HCT-116 % Inhibition at 0.25 μM: 0.25 μM compound
Outline: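 MTT colorimetric viability: three-to-five-day compound exposure in 0.5% (v/v) DMSO at 37° C, MTT 0.2 mg/mL for the last 4 h, A540 compared with vehicle-treated cells.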

[1] = target: human CDK4 and genetically truncated (1-264) cyclin D3 (Homo sapiens, UniProt P11802); test: Inhibition of CDK4/Cyclin D Retinoblastoma Kinase Activity; format: biochemical; conditions: 0.03 μM compound; Table 3
Outline: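 Human CDK4/truncated cyclin D3 (1-264) complex from baculovirus-infected insect cells, 5 nM, phosphorylating Rb fragment (residues 386-928, His-tagged) with 25 μM [32/33P]ATP in HEPES pH 7.4, MgCl2, 2% DMSO at 30° C. for 20 min (60 min for tight binders). Filter-captured radioactivity by phosphorimager; apparent Ki from competitive or tight-binding fits.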

CDK2/Cyclin A = CDK2/Cyclin A (Homo sapiens, UniProt P24941); test: Inhibition of CDK2/Cyclin A Retinoblastoma Kinase Activity; format: biochemical; conditions: 0.03 μM compound; Table 3
Outline: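 Baculovirus-expressed CDK2 complexed with proteolyzed cyclin A (10 or 19 nM), Rb fragment substrate, 25 μM [32P/33P]ATP, HEPES pH 7.4, 30 °C for 60 or 75 min under initial-rate conditions. Filter capture and phosphorimager readout; apparent Ki fitted to competitive or tight-binding competitive inhibition.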

Sequence of human CDK4 and genetically truncated (1-264) cyclin D3 (P11802 whole entry, the tested form may be a part): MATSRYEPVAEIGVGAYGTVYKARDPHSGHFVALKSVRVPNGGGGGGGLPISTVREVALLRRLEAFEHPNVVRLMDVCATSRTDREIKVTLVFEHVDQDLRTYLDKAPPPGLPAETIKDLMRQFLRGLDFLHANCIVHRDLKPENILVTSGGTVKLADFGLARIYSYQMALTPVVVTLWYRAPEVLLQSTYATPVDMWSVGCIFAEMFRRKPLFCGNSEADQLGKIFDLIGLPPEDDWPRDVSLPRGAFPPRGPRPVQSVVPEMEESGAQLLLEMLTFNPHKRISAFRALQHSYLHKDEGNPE
Sequence of human CDK4 and genetically truncated (1-264) cyclin D3 (P30281 1-264 partner): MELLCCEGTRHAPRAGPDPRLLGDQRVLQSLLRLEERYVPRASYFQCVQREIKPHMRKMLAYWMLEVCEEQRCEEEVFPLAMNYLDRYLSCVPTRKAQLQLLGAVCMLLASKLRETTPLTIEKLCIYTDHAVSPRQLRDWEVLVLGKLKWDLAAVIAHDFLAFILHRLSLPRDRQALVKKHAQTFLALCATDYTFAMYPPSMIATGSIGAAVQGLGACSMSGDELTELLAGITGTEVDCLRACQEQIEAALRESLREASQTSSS

Structure (SMILES)	CDK4 % Inhibition at 0.03 μM [1] [%]	CDK2 % Inhibition at 0.03 μM (CDK2/Cyclin A) [%]	HCT-116 % Inhibition at 0.1 μM (HCT-116 cell line) [%]	HCT-116 % Inhibition at 0.25 μM (HCT-116 cell line) [%]
COC(=O)c1sccc1S(=O)(=O)N1CCC(Nc2nc(N)c(C(=O)c3c(F)cccc3F)s2)CC1 [Example P63]	66	71	23	40
Nc1nc(NC2CCN(S(=O)(=O)c3c(F)cccc3F)CC2)sc1C(=O)c1c(F)cccc1F [Example P67]	22	−8	9	25
Nc1nc(NC2CCN(S(=O)(=O)c3ccc(CBr)cc3)CC2)sc1C(=O)c1c(F)cccc1F [Example P68]	70	72	8	25
CSc1nccc(-c2ccc(S(=O)(=O)N3CCC(Nc4nc(N)c(C(=O)c5c(F)cccc5F)s4)CC3)s2)n1 [Example P72]	61	61	13	35
CCCCOc1ccc(C(C)(C)CC(C)(C)C)cc1S(=O)(=O)N1CCC(Nc2nc(N)c(C(=O)c3c(F)cccc3F)s2)CC1 [Example P73]	1	−28	16	30
CCCCOc1ccc(C(C)(C)CC)cc1S(=O)(=O)N1CCC(Nc2nc(N)c(C(=O)c3c(F)cccc3F)s2)CC1 [Example P74]	4	−30	19	27

More lines, main results first:

CDK4 % Inhibition at 0.03 μM [1] [%]	CDK2 % Inhibition at 0.03 μM (CDK2/Cyclin A) [%]	Structure (SMILES)	HCT-116 % Inhibition at 0.1 μM (HCT-116 cell line) [%]	HCT-116 % Inhibition at 0.25 μM (HCT-116 cell line) [%]
70	74	Nc1nc(NC2CCN(S(=O)(=O)c3cccc4nsnc34)CC2)sc1C(=O)c1c(F)cccc1F [Example P62]	22	26
81	80	Nc1nc(NC2CCN(S(=O)(=O)c3ccc(-c4ccon4)s3)CC2)sc1C(=O)c1c(F)cccc1F [Example P64]	13	31
65	48	Nc1nc(NC2CCN(S(=O)(=O)c3ccc(-c4ccccc4)cc3)CC2)sc1C(=O)c1c(F)cccc1F [Example P65]	6	31
57	55	Nc1nc(NC2CCN(S(=O)(=O)c3ccc(CNC(=O)c4ccc(Cl)cc4)s3)CC2)sc1C(=O)c1c(F)cccc1F [Example P66]	12	34
21	−2	Cc1c(S(=O)(=O)N2CCC(Nc3nc(N)c(C(=O)c4c(F)cccc4F)s3)CC2)sc2ccc(Cl)cc12 [Example P69]	13	30
60	37	COC(=O)c1csc(S(=O)(=O)N2CCC(Nc3nc(N)c(C(=O)c4c(F)cccc4F)s3)CC2)c1OC [Example P70]	14	27
52	57	N#Cc1ccc(S(=O)(=O)N2CCC(Nc3nc(N)c(C(=O)c4c(F)cccc4F)s3)CC2)c(Cl)c1 [Example P71]	13	21
79	60	Nc1nc(NC2CCN(S(=O)(=O)c3ccc(Cl)c4nonc34)CC2)sc1C(=O)c1c(F)cccc1F [Example P75]	27	43
33	9	Nc1nc(NC2CCN(S(=O)(=O)CCc3cccc4ccccc34)CC2)sc1C(=O)c1c(F)cccc1F [Example P76]	23	–
